Test results as given in patent US8952024B2, “Herbicidal pyrimidone derivatives” (E I du Pont de Nemours and Company, priority 2009, dated 2015).

Experiments:
Type in all cases: in vivo
[1] = test system: Italian ryegrass (Lolium multiflorum); test: Test B pre-/postemergence plant response; settings: for Plant response rating, Ryegrass, Italian: Postemergence, scale 0 to 100 (0 no effect, 100 complete control)
From the text: (§1) Seeds of plant species selected from blackgrass (Alopecurus myosuroides), downy bromegrass (Bromus tectorum), green foxtail (Setaria viridis), Italian ryegrass (Lolium multiflorum), wheat (Triticum aestivum), wild oat (Avena fatua), deadnettle (henbit deadnettle, Lamium amplexicaule), galium (catchweed bedstraw, Galium aparine), bermudagrass (Cynodon dactylon), Surinam grass (Brachiaria decumbens), cocklebur (Xanthium strumarium), corn (Zea mays), large crabgrass (Digitaria sanguinalis), woolly cupgrass (Eriochloa villosa), giant foxtail (Setaria faberii), goosegrass (Eleusine indica), johnsongrass (Sorghum halepense), kochia (Kochia scoparia), lambsquarters (Chenopodium album), morningglory (Ipomoea coccinea), nightshade (eastern black nightshade, Solanum ptycanthum), yellow nutsedge (Cyperus esculentus), pigweed (Amaranthus retroflexus), ragweed (common ragweed, Ambrosia elatior), Russian thistle (Salsola kali), soybean (Glycine max), sunflower (common oilseed sunflower, Helianthus annuus) and velvetleaf (Abutilon theophrasti) were planted into a blend of loam soil and sand and treated preemergence with test compounds formulated in a non-phytotoxic solvent mixture which included a surfactant.
(§2) At the same time, plants selected from these crop and weed species and also winter barley (Hordeum vulgare), canarygrass (Phalaris minor), chickweed (Stellaria media) and windgrass (Apera spica-venti) were planted in pots containing Redi-Earth® planting medium (Scotts Company, 14111 Scottslawn Road, Marysville, Ohio 43041) comprising spaghnum peat moss, vermiculite, wetting agent and starter nutrients and treated with postemergence applications of some of the test chemicals formulated in the same manner. Plants ranged in height from 2 to 18 cm (1- to 4-leaf stage) for postemergence treatments.
(§3) Treated plants and controls were maintained in a greenhouse for 13 to 15 days, after which time all treated plants were visually evaluated and compared to controls. Plant response ratings, summarized in Table B, are based on a scale of 0 to 100 where 0 is no effect and 100 is complete control. A dash (-) response means no test result.

[2] = test system: Surinam grass (Brachiaria decumbens); test: Test B pre-/postemergence plant response; settings: for Plant response rating, Surinam Grass: Postemergence, scale 0 to 100 (0 no effect, 100 complete control)
From the text: as §1, §2, §3

[3] = test system: blackgrass (Alopecurus myosuroides); test: Test B pre-/postemergence plant response
From the text: as §1, §2, §3

[4] = test system: cocklebur (Xanthium strumarium); test: Test B pre-/postemergence plant response
From the text: as §1, §2, §3

corn (Zea mays) = test: Test B pre-/postemergence plant response
From the text: as §1, §2, §3

[5] = test system: downy bromegrass (Bromus tectorum); test: Test B pre-/postemergence plant response
From the text: as §1, §2, §3

[6] = test system: giant foxtail (Setaria faberii); test: Test B pre-/postemergence plant response
From the text: as §1, §2, §3

[7] = test system: morningglory (Ipomoea coccinea); test: Test B pre-/postemergence plant response
From the text: as §1, §2, §3

[8] = test system: pigweed (Amaranthus retroflexus); test: Test B pre-/postemergence plant response
From the text: as §1, §2, §3

wild oat (Avena fatua) = test: Test B pre-/postemergence plant response
From the text: as §1, §2, §3

[9] = test system: canarygrass (Phalaris minor); test: Test B postemergence plant response
Procedure, shortened: (§4)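 Plants at the 1- to 4-leaf stage (2 to 18 cm tall), grown in pots of peat moss/vermiculite medium with wetting agent and starter nutrients, received postemergence applications of test chemicals. After 13 to 15 days in a greenhouse, injury was rated visually against untreated controls on a 0 (no effect) to 100 (complete control) scale.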

[10] = test system: chickweed (Stellaria media); test: Test B postemergence plant response
Procedure, shortened: as §4

[11] = test system: windgrass (Apera spica-venti); test: Test B postemergence plant response
Procedure, shortened: as §4

[12] = 62 g ai/ha, postemergence, 0 is no effect, 100 is complete control, 13 to 15 days
[13] = 31 g ai/ha, postemergence, scale 0 to 100, 0 is no effect, 100 is complete control
[14] = Postemergence, 125 g ai/ha, scale 0 to 100 (0 no effect, 100 complete control)
[15] = Postemergence, 250 g ai/ha, scale 0 to 100 (0 no effect, 100 complete control)

CCCCn1c(-c2cc(F)cc(F)c2)ncc(C(=O)C2=C(O)CCCC2=O)c1=O [Compound 121]
Ryegrass, Italian plant response rating (0 to 100 scale) [1, 12]: 40 | Plant response rating, Ryegrass, Italian ([1]; 125 g ai/ha): 70 | Plant response rating, Ryegrass, Italian ([1]; 250 g ai/ha): 75 | Surinam Grass plant response rating (0 to 100 scale) [2, 12]: 100 | Plant response rating, Surinam Grass ([2]; 125 g ai/ha): 100 | Plant response rating, Surinam Grass ([2]; 250 g ai/ha): 100 | Plant response rating, Blackgrass [3, 13]: 5 | Blackgrass plant response rating (0 to 100 scale) [3, 12]: 40 | Plant response rating, Blackgrass [3, 14]: 40 | Plant response rating, Blackgrass [3, 15]: 60 | Plant response rating, Cocklebur [4, 13]: 40 | Cocklebur plant response rating (0 to 100 scale) [4, 12]: 45 | Plant response rating, Cocklebur [4, 14]: 85 | Plant response rating, Cocklebur [4, 15]: 100 | Plant response rating, Corn (corn (Zea mays); [13]): 25 | Corn plant response rating (0 to 100 scale) (corn (Zea mays); [12]): 55 | Plant response rating, Corn (corn (Zea mays); [14]): 55 | Plant response rating, Corn (corn (Zea mays); [15]): 85 | Plant response rating, Bromegrass, Downy [5, 13]: 25 | Bromegrass, Downy plant response rating (0 to 100 scale) [5, 12]: 50 | Plant response rating, Bromegrass, Downy [5, 14]: 80 | Plant response rating, Bromegrass, Downy [5, 15]: 90 | Plant response rating, Foxtail, Giant [6, 13]: 95 | Foxtail, Giant plant response rating (0 to 100 scale) [6, 12]: 98 | Plant response rating, Foxtail, Giant [6, 14]: 98 | Plant response rating, Foxtail, Giant [6, 15]: 98 | Plant response rating, Morningglory [7, 13]: 5 | Morningglory plant response rating (0 to 100 scale) [7, 12]: 20 | Plant response rating, Morningglory [7, 14]: 25 | Plant response rating, Morningglory [7, 15]: 45 | Plant response rating, Pigweed [8, 13]: 100 | Pigweed plant response rating (0 to 100 scale) [8, 12]: 100 | Plant response rating, Pigweed [8, 14]: 100 | Plant response rating, Pigweed [8, 15]: 100 | Plant response rating, Oat, Wild (wild oat (Avena fatua); [13]): 60 | Oat, Wild plant response rating (0 to 100 scale) (wild oat (Avena fatua); [12]): 90 | Plant response rating, Oat, Wild (wild oat (Avena fatua); [14]): 98 | Plant response rating, Oat, Wild (wild oat (Avena fatua); [15]): 98 | Plant response rating, Canarygrass [9, 13]: 0 | Canarygrass plant response rating (0 to 100 scale) [9, 12]: 5 | Plant response rating, Canarygrass [9, 14]: 5 | Plant response rating, Canarygrass [9, 15]: 30 | Plant response rating, Chickweed [10, 13]: 100 | Chickweed plant response rating (0 to 100 scale) [10, 12]: 100 | Plant response rating, Chickweed [10, 14]: 100 | Plant response rating, Chickweed [10, 15]: 100 | Windgrass plant response rating (0 to 100 scale) [11, 12]: 98 | Plant response rating, Windgrass [11, 14]: 100
